Legend:
[1] = system: MCF-7/ADR adriamycin resistant line of MCF-7 cells; assay: Human Tumor Cell Growth Inhibition, MCF-7/ADR; format: cell-based; details: NCI/ADR-RES, 3H-thymidine incorporation, value without parentheses (not salt)
Excerpt: MCF-7 a human breast tumor cell line and MCF-7/ADR an adriamycin resistant line of MCF-7 cells were obtained from the National Cancer Institute, Frederick, Md. CEM cells (ATCC accession number CCL 119) were obtained from the American Type Culture Collection, Rockville, Md. Human tumor cells are trypsinized (0.05% trypsin, GIBCO), counted with a hemacytometer and seeded at a concentration of 10,000 cells/well in a 96 well microtiter plate. After allowing cells to attach to the surface overnight, the culture medium is aspirated and replaced with 100 μl of fresh medium. Test agents are diluted to determine dose response at 2× final concentration and added in quadruplicate at 100 μl/well to bring the total volume of each well to 200 μl. The microtiter plate is then incubated at 37° C. 5% CO2 overnight (18-24 hrs) before ^3 H-thymidine is added at a concentration of 0.5 μCi/well in 50 μl culture medium. The plate is incubated again for 4 hrs under the same conditions as above. Supernatant is then aspirated and 50 μl trypsin (0.05%, GIBCO) is added to each well. Cells are checked microscopically to determine detachment from surfaces, and plates are then harvested with a cell harvester (PHD, Cambridge Technology, Inc.) Filter papers corresponding to wells are placed in scintillation vials and counted to determine the amount of ^3 H-thymidine incorporated by the cells. […]

[2] = system: MCF-7 human breast tumor cell line; assay: Human Tumor Cell Growth Inhibition, MCF-7; format: cell-based; details: Homo sapiens, MCF7; 3H-thymidine incorporation; value outside parentheses (not salt)
Description: MCF-7 a human breast tumor cell line and MCF-7/ADR an adriamycin resistant line of MCF-7 cells were obtained from the National Cancer Institute, Frederick, Md. […] Human tumor cells are trypsinized (0.05% trypsin, GIBCO), counted with a hemacytometer and seeded at a concentration of 10,000 cells/well in a 96 well microtiter plate. After allowing cells to attach to the surface overnight, the culture medium is aspirated and replaced with 100 μl of fresh medium. Test agents are diluted to determine dose response at 2× final concentration and added in quadruplicate at 100 μl/well to bring the total volume of each well to 200 μl. The microtiter plate is then incubated at 37° C. 5% CO2 overnight (18-24 hrs) before ^3 H-thymidine is added at a concentration of 0.5 μCi/well in 50 μl culture medium. The plate is incubated again for 4 hrs under the same conditions as above. Supernatant is then aspirated and 50 μl trypsin (0.05%, GIBCO) is added to each well. Cells are checked microscopically to determine detachment from surfaces, and plates are then harvested with a cell harvester (PHD, Cambridge Technology, Inc.) Filter papers corresponding to wells are placed in scintillation vials and counted to determine the amount of ^3 H-thymidine incorporated by the cells. Test agent response is compared to a positive control of cell wells with culture media only to determine the IC50. IC50 is the concentration of test compound required to inhibit fifty per cent of the incorporation of ^3 H-thymidine into proliferating cells not exposed to test agent. Uptake of ^3 H-thymidine is a standard test for measuring the metabolism of cells. Cells which are actively proliferating take up ^3 H-thymidine, whereas cells that are not proliferating take up ^3 H-thymidine at much slower rates or not at all. Test agents that inhibit the uptake of ^3 H-thymidine thus slow the growth of cells.

[3] = target: T1, protein kinase (PKA), catalytic subunit (Homo sapiens, UniProt P17612); assay: cAMP-Dependent Protein Kinase (PKA) Assay; format: biochemical; details: free base
T1 construct: purchased Sigma Chemical Company, St. Louis, Mo
Description: Compound found to be inhibitors of protein kinase C are tested for inhibitory activity against protein kinase (PKA). This enzyme, like protein kinase C, plays an important role in cell-cell communication and is activated by a second messenger, cAMP. Secondary screening against PKA is useful for ascertaining the selectivity of the compounds of the invention. The catalytic subunit of PKA (Sigma Chemical Company, St. Louis, Mo.) is mixed with buffer before addition of the inhibitor in dimethylsulfoxide (DMSO). The assay is started by the addition of 32P-ATP and the reaction is allowed to proceed for 10 min before stopping with 25% trichloroacetic acid (TCA) and 1.0 mg/ml bovine serum albumin (BSA). The phosphorylated protein is isolated by filtration and the radioactivity is counted in a beta scintillation counter.

protein kinase C (PKC) = assay: Protein Kinase C Inhibition; format: biochemical, rat
Description: The protein kinase C (PKC) assay is designed to duplicate the in vivo conditions required for protein kinase C function. Therefore, pH, salt and cofactor concentrations are similar to physiologic levels. Histone H1 (lysine rich) is used in the assay as the phosphorylation acceptor protein because it is readily available and serves as a good substrate for protein kinase C. The enzyme is prepared from rat brain and is purified to apparent homogeneity as determined by a single band on silver stained SDS-polyacrylamide. Studies on the mechanism of regulation of protein kinase C by phospholipids, DAG and Ca^+2 have been hampered by the physical properties of the lipid cofactors. In the screening assay, phosphatidylserine (PS) and DAG are co-sonicated to form unilamellar and multilamellar vesicles. The concentration of lipids in the assay are suboptimal to maximize the detection potential of the assay for inhibitors. […] The assay is started with the addition of enzyme and stopped after 10 min by the addition of 25% trichloroacetic acid (TCA) and 1.0 mg/ml bovine serum albumin (BSA). The radioactive histone product is retained and washed on glass fiber filters that allow the unreacted ^32 P-ATP to pass through. The amount of phosphorylation is determined by the radioactivity measured in a scintillation counter. Controls are included in every assay to measure background activity in the absence of enzyme, activity in the absence of lipids and the maximum enzyme activity with saturating levels of the activator lipids.
Both the free base and the HCl salt were tested.

[4] = system: PMA-stimulated neutrophils; assay: Neutrophil Superoxide Anion (O2^-) Release Assay; format: cell-based, human; details: Homo sapiens, Neutrophil; PMA-stimulated; value outside parentheses (not salt); read-out: Neutrophil Superoxide Release IC50
Description: Neutrophils are isolated form whole blood collected from human volunteers. All reagent materials are obtained from Sigma Chemical Company with the exception of isotonic saline (Travenol Laboratories, Inc., Deerfield, Ill.) and lymphocyte separation medium (Organon Teknika, Durham, N.C.).
Whole blood is drawn and mixed with sodium heparin (final conc. 10 units/ml) to prevent clotting. An equal volume of dextran (3.0%) in isotonic saline is added, mixed, and allowed to settle for 30 min to bind red blood cells (RBC). Supernatant is removed, underlayered with lymphocyte separation medium and centrifuged for 40 min at 400 xg in a centrifuge (Beckman GPR, Norcross, Ga). The pellet is alternately resuspended in 0.2% and 1.6% NaCl to lyse RBCs before washing with Hank's Balanced Salt Solution (HBSS). The washed pellet is resuspended in 10 mL HBSS and placed on ice before counting on a hemacytometer.
The neutrophil cell concentration is adjusted to 2×10^6 cells/ml with HBSS before adding 0.8 mL cells to 12×75 mm polypropylene test tubes (Fisher Scientific). Test agents are diluted to determine dose response and added at 10× final concentration at a volume of 0.1 mL/tube in duplicate. Then 10× concentrations of cytochrome C (15 mg/ml) with catalase (3000 units/ml) either alone or containing 25 ng/ml phorbol 12-myristate 13-acetate (PMA) are added at a volume of 0.1 mL/tube and incubated at 37° C. for 30 min before stopping the reaction by placing tubes on ice. Tubes are then centrifuged at 900 xg for 10 min, 0.5 mL supernatant is removed and added to 0.5 mL H2 O in a microcuvette. Optical density (OD) of cytochrome c is read in a spectrophotometer (Shimadzu) at 550 nm. The ΔOD of cytochrome c is obtained between PMA-stimulated and non-stimulated tubes, and the dose responses of the test agents are compared to the positive controls (which contain HBSS in place of test agents). PMA stimulates O2^- production which reduces cytochrome c. Reducing cytochrome c increases its absorbance, and the change in OD of cytochrome c is proportional to the amount of O2^- produced by PMA stimulation. Inhibition of the O2^- burst by test compounds of the invention is seen as a reduction in the change in optical density. Inhibition is expressed as IC50 μM and is the amount of test compound that will inhibit fifty percent of the PMA-stimulated respiratory outburst, i.e. O2^- production.

[5] = system: NHEK cells (proliferating keratinocytes); assay: Human Keratinocyte Inhibition; format: cell-based; details: 3H-thymidine incorporation, value outside parentheses (not salt), read-out: NHEK IC50
Description: Proliferating keratinocytes (NHEK cells purchased from Clonetics, Inc., San Diego, Calif.) in second passage were grown in Keratinocyte Growth Medium (KGM) (Clonetics, Inc.) Cells are trypsinized (0.025% trypsin, Clonetics), counted with a hemacytometer (Scientific Products), and seeded at a concentration of 2,500 cells/well in a 96 well microtiter plate. After allowing cells to attach to the surface overnight, the culture medium is aspirated and replaced with 100 μl of fresh KGM. […] IC50 is the concentration of test compound required to inhibit fifty percent of the incorporation of ^3 H-thymidine into proliferating cells not exposed to test agent.

IC50 [1] [µM]	IC50 [2] [µM]	IC50 [3] [µM]	IC50 (protein kinase C (PKC); HCl salt) [µM]	IC50 (protein kinase C (PKC); free base) [µM]	IC50 [4] [µM]	Structure (SMILES)	IC50 [5] [µM]
2.6	4.1	> 217	66	130	1.8	CCCCCCCCCCCCCCCC(=O)NCCCN1CCCCC1C (stereo not drawn) [Compound 11, 2-Methyl-l-[3-(N-hexadecanoyl)aminopropyl]piperidine]	
> 25	19.3	131		22		CCCCCCCCCCCCCCCC(=O)N(C)CCC[N+]1(C)CCOCC1 [Compound 16, 4-[N-hexadecanoyl-N-methyl-4-(3-aminopropyl)]-4-methylmorpholimium iodide]	1.4
